{
  "source": "paper PMC4710668",
  "about": "“Bioactivation of food genotoxicants 5-hydroxymethylfurfural and furfuryl alcohol by sulfotransferases from human, mouse and rat: a comparative study” (Archives of Toxicology, 2014)",
  "key": {"[1]": {"parameters": "method as in Glatt et al. [2012]", "conditions": "in water at 37 °C; ref Glatt et al. [2012]; cited from earlier work"}, "hSULT1A1": {"biological_target": "T1, hSULT1A1 (Homo sapiens, UniProt P50225)", "T1 construct": "made in house; host or cells: Salmonella typhimurium TA1538 (cytosolic fraction, not purified)", "T1 sequence (P50225 whole entry)": "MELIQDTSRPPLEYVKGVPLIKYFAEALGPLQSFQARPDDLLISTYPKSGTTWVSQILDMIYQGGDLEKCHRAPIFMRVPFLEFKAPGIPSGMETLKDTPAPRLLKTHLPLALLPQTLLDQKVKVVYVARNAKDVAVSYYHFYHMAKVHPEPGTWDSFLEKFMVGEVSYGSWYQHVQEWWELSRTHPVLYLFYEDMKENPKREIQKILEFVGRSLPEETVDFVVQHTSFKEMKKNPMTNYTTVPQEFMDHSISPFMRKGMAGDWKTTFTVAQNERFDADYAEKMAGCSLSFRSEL", "conditions": "cited from earlier work; for K M of sulfoconjugation: ref Honma et al. [2001]"}, "[2]": {"parameters": "method as in Monien et al. [2009]", "conditions": "ref Monien et al. [2009], cited from earlier work"}, "[3]": {"assay": "Stability of SMF in solution", "format": "physicochemical", "conditions": "solutions containing 75 % 2-propanol at 4 °C, within four weeks", "method": "The analytical technique used in this study was adapted from the SMF quantification in plasma samples of HMF-treated mice (Monien et al. [2009]). This is beset with two potential sources of inaccuracy. […] Here, we chose a reaction time of 30 min. […] SMF was analyzed by UPLC-MS/MS in the MRM mode using the specific fragmentation reactions of the sulfate ion radical (m/z = 204.9 → 96.0) and the protonated sulfonate ion (m/z = 204.9 → 81.0) (Monien et al. [2009]). Representative chromatograms are shown in Fig. S2 of the Supplementary Material. The SMF levels resulting from HMF sulfoconjugation were quantified using SMF solutions at various concentrations as external calibration line prepared in water/2-propanol (1:3), which represents the solvent composition in the incubation mixture following instant stopping and precipitating of proteins. The second source of imprecision of mass spectrometric SMF quantification with an external calibration is the possible ion suppression by residues from bacterial cytosol or buffer salts in the samples. This was tested in a separate experiment measuring the peak areas of six series of solutions with five different SMF concentrations, either prepared with water or with the contents of the incubation mixture including 1 mg/ml protein from a cytosolic preparation of native S. typhimurium TA1538."}},
  "note": "Like-named read-outs stand apart in the source and are kept apart here.",
  "data": [
    {"smiles": "O=S(=O)(O)OCc1ccco1", "note": "[2-sulfoxymethylfuran]", "values": [
      {"measurement": "t 1/2", "setting": "[1]", "result": 20, "unit": "s"}
    ]},
    {"smiles": "COc1cc2c(CCNC(C)=O)c[nH]c2cc1O", "note": "[6-hydroxymelatonin]", "values": [
      {"measurement": "K M of sulfoconjugation", "setting": "hSULT1A1", "result": 18, "unit": "µM"}
    ]},
    {"smiles": "O=Cc1ccc(COS(=O)(=O)O)o1", "note": "[SMF, 5-sulfoxymethylfurfural]", "values": [
      {"measurement": "half-life", "setting": "[2]; in plasma at 37 °C", "result": 1.8, "unit": "h"},
      {"measurement": "half-life", "setting": "[2]; in urine at 37 °C", "result": 2.1, "unit": "h"},
      {"measurement": "half-life", "setting": "[2]; in water at 37 °C", "result": 1.9, "unit": "h"},
      {"measurement": "stability", "setting": "[3]", "result": "without any detectable degradation"}
    ]},
    {"smiles": "NCCc1ccc(O)c(O)c1", "note": "[dopamine]", "values": [
      {"measurement": "K M of sulfoconjugation", "setting": "hSULT1A1", "result": 130, "unit": "µM"}
    ]},
    {"smiles": "O=[N+]([O-])c1ccc(O)cc1", "note": "[p-nitrophenol]", "values": [
      {"measurement": "K M of sulfoconjugation", "setting": "hSULT1A1", "result": 3.0, "unit": "µM"}
    ]},
    {"smiles": "CC(=O)Nc1ccc(O)cc1", "note": "[paracetamol]", "values": [
      {"measurement": "K M of turnover", "setting": "hSULT1A1; ref Adjei et al. [2008]", "result": 2400, "unit": "µM"}
    ]}
  ]
}
